These are literature values, as cited in patent US7560120B2, “Vehicles for delivery of biologically active substances” (University of Tennessee Research Foundation, priority 2002, dated 2009).

In general, LD50 refers to the dose expected to kill half of the subjects tested.

Counter-ions that a name gives are not always drawn. Like-named read-outs stand apart in the source and are kept apart here. Some results are limits rather than exact numbers.

The test system of data set [1] is Rat. Particulars: oral.
Test in data set [2]: not given
This is another data set of the same source.

Data set [3] deals with Rat. Particulars: in vivo, sc.

On to `CCCCCCOC(=O)CC(CC(=O)OCCCCCC)(OC(C)=O)C(=O)OCCCCCC` [A-6, Acetyltri-n-hexyl Citrate], for which the “Viscosity (cps) at 25° C.” value is on record as 36 cps. Further, in the data set with Rat [1], the LD50 was 20000 mg/kg.

`CCCCOC(=O)CC(CC(=O)OCCCC)(OC(C)=O)C(=O)OCCCC` [ATBC, Acetyl Tributyl Citrate]: the “Viscosity (cps) at 25° C.” value was 33 cps. The “Water Solubility at 25° C. (g/100 ml)” value in data set [2] is under 0.1 g/100 ml. The LD50 with Rat [1] is over 25000 mg/kg.

Take `CCOC(=O)CC(CC(=O)OCC)(OC(C)=O)C(=O)OCC` [ATEC, acetyl triethyl citrate]: the “Viscosity (cps) at 25° C.” value is reported as 54 cps. For the same compound, in the data set on Rat [1], the LD50 is 7000 mg/kg.

Regarding `CCCCCCOC(=O)CC(CC(=O)OCCCCCC)(OC(=O)CCC)C(=O)OCCCCCC` [B-6, Butyryltri-n-hexyl Citrate], the “Viscosity (cps) at 25° C.” value is 28 cps. In the data set on Rat [1], the median lethal dose (LD50) was 2000 mg/kg.

With `CCCCOC(=O)CC(O)(CC(=O)OCCCC)C(=O)OCCCC` [TBC, Tributyl Citrate], the “Viscosity (cps) at 25° C.” value was 32 cps. In addition, the “Water Solubility at 25° C. (g/100 ml)” value in data set [2] is under 0.1 g/100 ml. Also, the LD50 in the data set on Rat [1] was over 30000 mg/kg.

On to `CCOC(=O)CC(O)(CC(=O)OCC)C(=O)OCC` [TEC, triethyl citrate], for which the “Viscosity (cps) at 25° C.” value is on record as 35 cps. Moreover, in the data set with Rat [3], the LD50 is 6600 mg/kg.
